Results on 25 molecules are retold here after PubChem BioAssay (NCI).

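Dose response: 5 concentrations. Exposure: 48 h. Format: 96-well plates. Endpoint: linear interpolation; highest concentration if not reached. The concentration for full growth arrest is given as TGI.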 Where only a bound is given, the exact number is not on record here.

Test systems include 786-0 renal; DU-145 prostate; MDA-N; NCI/ADR-RES ovarian; OVCAR-8 ovarian; SK-MEL-2 melanoma; SR leukemia; UO-31 renal; LOX IMVI melanoma.
What all share (assay): DTP human tumour cell line panel, 48 h

What is called TGI is the concentration at which net growth stops.

Consider `Cc1cc(N(CCC#N)CCC#N)ccc1/C(N=Nc1ccccc1)=N\NC(=O)c1ccccc1`, for which the TGI in the assay on 786-0 renal was 76.6 µM; in the assay with DU-145 prostate, greater than 100 µM; in the assay with MDA-N, greater than 100 µM; with NCI/ADR-RES ovarian it was 75.5 µM; in the assay on OVCAR-8 ovarian it was 90.7 µM; in the assay on SK-MEL-2 melanoma, greater than 100 µM. Further, the results for the TGI in the assay on SR leukemia and with UO-31 renal were 71.6 µM and 65.1 µM, respectively.

`O/N=C1/CCCCCC1NO` (stereo not given): the TGI in the assay on 786-0 renal, in the assay with DU-145 prostate, in the assay on LOX IMVI melanoma, in the assay on MDA-N, with NCI/ADR-RES ovarian and in the assay with OVCAR-8 ovarian was greater than 100 µM throughout. Besides, the TGI in the assay with SK-MEL-2 melanoma and in the assay with UO-31 renal was greater than 100 µM throughout.

In the case of `C[C@@H]1OC(=O)C[C@H]2CC(=O)N(CCC3CN(S(=O)(=O)C(F)(F)F)c4ccc(Cc5ccc6c(c5)C(CCN5C[C@H]7[C@@H](CC(=O)O[C@H]7C)CC5=O)CN6S(=O)(=O)C(F)(F)F)cc43)C[C@@H]21` (stereo not given in full), the total growth inhibition concentration (TGI) in the assay with 786-0 renal, in the assay on DU-145 prostate, with LOX IMVI melanoma, in the assay on NCI/ADR-RES ovarian, with OVCAR-8 ovarian and with SK-MEL-2 melanoma was greater than 100 µM each time. The molecule also registered a TGI with UO-31 renal greater than 100 µM.

For `O=C1OC2c3ccccc3C(=O)C2(c2ccccc2)N1c1ccccc1` (stereo not given), the TGI in the assay with 786-0 renal, in the assay on DU-145 prostate, in the assay on LOX IMVI melanoma, with MDA-N, in the assay on NCI/ADR-RES ovarian and with OVCAR-8 ovarian was greater than 200 µM each time. Moreover, the TGI in the assay on SK-MEL-2 melanoma and with UO-31 renal was greater than 200 µM throughout.

For `N#CC(C#N)=Cc1ccc(C=C2SC3=C(SCCS3)S2)s1`, the TGI in the assay on 786-0 renal was greater than 100 µM; with DU-145 prostate, greater than 100 µM; in the assay on MDA-N, 3.03 µM; in the assay on NCI/ADR-RES ovarian it was 42.8 µM; with OVCAR-8 ovarian it was greater than 100 µM; in the assay with SK-MEL-2 melanoma, greater than 100 µM. Moreover, the TGI with UO-31 renal is greater than 100 µM.

Consider `Cn1c(=O)c2c(ncn2CCSS(=O)(=O)O)n(C)c1=O`, for which the TGI with 786-0 renal, with DU-145 prostate, in the assay on MDA-N, in the assay on NCI/ADR-RES ovarian, with OVCAR-8 ovarian and with SK-MEL-2 melanoma was greater than 100 µM in each case. Besides, the TGI with UO-31 renal is greater than 100 µM.

In the case of `CNC(=O)c1n[nH]n(Cc2ccccc2)c1=S`, the TGI in the assay on 786-0 renal, in the assay with DU-145 prostate, in the assay on MDA-N, in the assay with NCI/ADR-RES ovarian, in the assay with OVCAR-8 ovarian and in the assay on SK-MEL-2 melanoma was greater than 100 µM each time. The molecule further had a TGI in the assay on UO-31 renal greater than 100 µM.

Turning to `O=C1C=CC[C@H](/C=C/C[C@@H](O)C[C@H](O)/C=C/c2ccccc2)O1`, the TGI stood at 29.6 µM in the assay with 786-0 renal; 26.3 µM in the assay with DU-145 prostate; 13.3 µM with LOX IMVI melanoma; 24.9 µM with MDA-N; 65.3 µM in the assay on NCI/ADR-RES ovarian; 32.9 µM in the assay with OVCAR-8 ovarian. The TGI turned out to be 26.3 µM in the assay on SK-MEL-2 melanoma and 25.9 µM in the assay with UO-31 renal.

For the molecule `O=C(Nc1nncs1)NS(=O)(=O)n1cnc2ccccc21`, the TGI with 786-0 renal, with DU-145 prostate, in the assay with MDA-N, with NCI/ADR-RES ovarian, in the assay on OVCAR-8 ovarian and in the assay on SK-MEL-2 melanoma was greater than 100 µM in each case. The same molecule came in with a TGI in the assay on SR leukemia greater than 100 µM.

With `CC(C)c1ccc2c(c1)C=C1OC(=O)[C@]3(C)CCC[C@@]2(C)C13` (stereo not given in full), the TGI with 786-0 renal, with DU-145 prostate, with MDA-N, with NCI/ADR-RES ovarian, with OVCAR-8 ovarian and in the assay on SR leukemia was greater than 100 µM in each case. Moreover, the concentration for total growth inhibition (TGI) in the assay on UO-31 renal is greater than 100 µM.

For the molecule `CC1C2(C)OC(=N)C(C#N)(C(c3ccco3)O2)C1(C#N)C#N` (stereo not given), the TGI in the assay with 786-0 renal was 49.5 µM; in the assay on DU-145 prostate it was greater than 100 µM; in the assay on LOX IMVI melanoma, 40.5 µM; with MDA-N, 43 µM; in the assay with NCI/ADR-RES ovarian, greater than 100 µM; with OVCAR-8 ovarian, greater than 100 µM. Moreover, the TGI with SK-MEL-2 melanoma was 75.9 µM; in the assay with UO-31 renal, greater than 100 µM.

For the molecule `NC1=NN(c2ccccc2)C2(c3ccncc3C(=O)O)C1C(N)=NN2c1ccccc1` (stereo not given), the TGI in the assay on 786-0 renal, in the assay on DU-145 prostate, with LOX IMVI melanoma, in the assay with MDA-N, in the assay on NCI/ADR-RES ovarian and in the assay on OVCAR-8 ovarian was greater than 100 µM in each case. Further, the TGI with SK-MEL-2 melanoma and in the assay on UO-31 renal was greater than 100 µM each time.

As to `CN(C)CCCNC(=O)c1cc(NC(=O)c2cc(NC(=O)[C@H]3C[C@@H]3C(=O)Nc3cc(C(=O)Nc4cc(C(=O)NCCCN(C)C)n(C)c4)n(C)c3)cn2C)cn1C`, the TGI in the assay with 786-0 renal, in the assay on DU-145 prostate, in the assay on LOX IMVI melanoma, in the assay with NCI/ADR-RES ovarian, in the assay with OVCAR-8 ovarian and in the assay on SK-MEL-2 melanoma was greater than 100 µM throughout. The TGI in the assay with SR leukemia was greater than 100 µM.

For `Cc1ccc(S(=O)C[C@@]2(C(F)F)NC(=O)NC2=O)cc1` (stereo not given in full), the TGI with 786-0 renal, with DU-145 prostate, with LOX IMVI melanoma, in the assay with NCI/ADR-RES ovarian, in the assay on OVCAR-8 ovarian and in the assay on SK-MEL-2 melanoma was greater than 100 µM each time. In addition, the TGI in the assay on SR leukemia and in the assay with UO-31 renal was greater than 100 µM in each case.

Take `COc1cc(-c2c3c([nH]c(=O)c2C#N)-c2cc([N+](=O)[O-])ccc2CCC3)cc(OC)c1OC`: the concentration for total growth inhibition (TGI) was 65.2 µM in the assay with 786-0 renal; greater than 100 µM in the assay with DU-145 prostate; greater than 100 µM with LOX IMVI melanoma; 55 µM in the assay with MDA-N; greater than 100 µM with NCI/ADR-RES ovarian; greater than 100 µM in the assay on OVCAR-8 ovarian. Moreover, the concentration for total growth inhibition (TGI) in the assay with SK-MEL-2 melanoma came out at 44.3 µM; in the assay on UO-31 renal it was 75.1 µM.

Consider `COc1cc(CNC(=O)[C@H](Cc2ccc(O)cn2)NC(C)=O)cc(OC)c1`, for which the TGI in the assay on 786-0 renal, in the assay with DU-145 prostate, with LOX IMVI melanoma, in the assay with MDA-N, in the assay on NCI/ADR-RES ovarian and in the assay with SK-MEL-2 melanoma was greater than 100 µM throughout. Moreover, in the assay on UO-31 renal, the TGI was greater than 100 µM.

As for `O=C(N/N=C/C=C/c1ccc([N+](=O)[O-])o1)c1ccc(Br)s1`, the TGI with 786-0 renal is 47.5 µM; in the assay with DU-145 prostate it was greater than 100 µM; in the assay on LOX IMVI melanoma, 60.7 µM; in the assay with MDA-N it was 56.7 µM; in the assay on NCI/ADR-RES ovarian it was 57.4 µM; in the assay with OVCAR-8 ovarian, 46.7 µM. In addition, the TGI in the assay on SK-MEL-2 melanoma was found to be 56.3 µM; in the assay on UO-31 renal, 48.9 µM.

Turning to `COC1=CC(=O)c2c(O)ccc(O)c2C1=O`, the concentration for total growth inhibition (TGI) in the assay with 786-0 renal was 28 µM; in the assay with DU-145 prostate it was 3.18 µM; in the assay with MDA-N it was 1.9 µM; in the assay with NCI/ADR-RES ovarian, 60.2 µM; with OVCAR-8 ovarian, 55.5 µM; in the assay with UO-31 renal, 34.9 µM.

As for `CC(C)CCNC(=O)c1ccc(CNC(=O)/C=C/c2csc(-c3ccccc3)n2)cc1`, the TGI was greater than 100 µM in the assay with 786-0 renal; greater than 100 µM in the assay with DU-145 prostate; greater than 100 µM with LOX IMVI melanoma; greater than 100 µM with MDA-N; greater than 100 µM with NCI/ADR-RES ovarian; 79.2 µM in the assay on OVCAR-8 ovarian. Also, the TGI in the assay with SK-MEL-2 melanoma is greater than 100 µM; with UO-31 renal, 58.6 µM.

With `Clc1ccc2c(c1)CC1C[N+]3=C(CCCC3)C1=C2` (stereo not given), the TGI with 786-0 renal, in the assay on DU-145 prostate, in the assay on LOX IMVI melanoma, in the assay with MDA-N, with NCI/ADR-RES ovarian and with OVCAR-8 ovarian was greater than 100 µM throughout. The TGI in the assay on SK-MEL-2 melanoma and with UO-31 renal was greater than 100 µM each time.

Consider `COC(=O)c1cc(-c2ccc(-c3ccc(O)cc3)cc2)cc(-c2ccc(-c3ccc(O)cc3)cc2)c1`, for which the TGI in the assay on 786-0 renal worked out at 18.9 µM; with LOX IMVI melanoma it was 18.4 µM; in the assay with MDA-N, 23 µM; in the assay with NCI/ADR-RES ovarian it was 30.1 µM; with SK-MEL-2 melanoma it was 33.7 µM; in the assay with UO-31 renal, 23.6 µM.

With `CCn1c(-c2ccccc2)nc2c1C(=O)c1ccccc1C2=O`, the TGI in the assay on 786-0 renal is greater than 100 µM; in the assay on DU-145 prostate, greater than 100 µM; with MDA-N, 36.9 µM; with NCI/ADR-RES ovarian, 33.9 µM; in the assay on OVCAR-8 ovarian it was 35 µM; in the assay on SR leukemia it was greater than 100 µM.

As to `O=C(O)c1cncc(C(=O)O)c1`, the TGI in the assay on 786-0 renal, in the assay on DU-145 prostate, in the assay with LOX IMVI melanoma, with MDA-N, in the assay on NCI/ADR-RES ovarian and with OVCAR-8 ovarian was greater than 100 µM throughout. For the same molecule, the TGI in the assay on SK-MEL-2 melanoma and with UO-31 renal was greater than 100 µM throughout.

Regarding `CC(=O)OCC1OC(n2c3c(cc(C#N)c2=S)CCCCCC3)C(OC(C)=O)C(OC(C)=O)C1OC(C)=O` (stereo not given), the total growth inhibition concentration (TGI) is greater than 100 µM in the assay with 786-0 renal; greater than 100 µM in the assay with DU-145 prostate; 49.8 µM in the assay with LOX IMVI melanoma; greater than 100 µM in the assay with NCI/ADR-RES ovarian; greater than 100 µM with OVCAR-8 ovarian; greater than 100 µM in the assay on SK-MEL-2 melanoma. Moreover, the TGI in the assay with SR leukemia and with UO-31 renal was greater than 100 µM throughout.

`COc1cc(C2c3[nH]c4ccc(F)cc4c3C[C@H]3COC(=O)N23)cc(OC)c1O` (stereo not given in full): the concentration for total growth inhibition (TGI) in the assay with 786-0 renal was 26 µM; in the assay with DU-145 prostate, 39.2 µM; with LOX IMVI melanoma, 31.3 µM; in the assay on NCI/ADR-RES ovarian it was greater than 100 µM; with OVCAR-8 ovarian, 39.3 µM; with SK-MEL-2 melanoma, 60.3 µM. The TGI in the assay on UO-31 renal came out at 28.9 µM.
